Data on four compounds can be found in patent publication US10280183B2, “Therapeutic agent for treating tumors” (THE RESEARCH FOUNDATION FOR THE STATE UNIVERSITY OF NEW YORK, priority 2014, dated 2019).

Series [1] relates to L1210 murine lymphocytic leukemia cell line (BR−). In words: In vitro cytotoxicity, standard MTT assay, L1210 cells. Format: cell-based. Particulars: Mus musculus, read-out: Cytotoxicity IC50, L1210. Here is the method: (§1) Cell Culture. All cell lines were obtained from ATCC unless otherwise noted. Cells were cultured in RPMI-1640 cell culture medium (Gibco) or DMEM (Gibco), both supplemented with 5% (v/v) heat-inactivated fetal bovine serum (FBS), 5% (v/v) NuSerum, and 1% (v/v) penicillin and streptomycin (PenStrep) at 37° C. in a humidified atmosphere with 5% CO2. MX-1 and ID8 (obtained from University of Kansas Medical Center) cells were cultured as monolayers on 100 mm tissue culture dishes in supplemented RPMI-1640. L1210 and L1210FR (a gift from Dr. Gregory Russell-Jones, Access Pharmaceuticals Pty Ltd., Australia) were grown as a suspension in supplemented RPMI-1640, and WI-38 as a monolayer in supplemented DMEM. Cells were harvested, collected by centrifugation at 850 rpm for 5 min, and resuspended in fresh culture medium. Cell cultures were routinely divided by treatment with trypsin (TrypLE, Gibco) as needed every 2-4 days and collected by centrifugation at 850 rpm for 5 min, and resuspended in fresh cell culture medium, containing varying cell densities for subsequent biological experiments and analysis.
(§2) In Vitro Cytotoxicity Assays. […] Cells were harvested, collected, and resuspended in 100 μL cell culture medium at concentrations ranging from 0.5-1.5×10^4 cells per well in a 96-well plate. For adhesive cell types, cells were allowed to descend to the bottom of the wells overnight, and fresh medium was added to each well upon removal of the old medium.
(§3) For the MTT assay (Table 1 and the Assay 1 in Table 2) of paclitaxel, taxoid 3 and conjugates 1 and 15, cells were resuspended in 200 μL medium with 8,000 to 10,000 cells per well of a 96-well plate and incubated at 37° C. for 24 h before drug treatment. In DMSO stock solutions, each drug or conjugate was diluted to a series of concentrations in cell culture medium to prepare test solutions. After removing the old medium, these test solutions were added to the wells in the 96-well plate to give the final concentrations ranging from 0.5 to 5,000 nM (100 μL), and the cells were subsequently cultured at 37° C. for 48 h (Table 1) or 72 h (Table 2, Assay 1). For the leukemia cell lines, L1210 and L1210FR, cells were harvested, collected, and resuspended in the test solutions ranging from 0.5 to 5,000 nM (100 μL) at 0.5 to 0.8 ×10^4 cells per well in a 96-well plate and subsequently incubated at 37° C. for 48 h (Table 1) or 72 h (Table 2, Assay 1).
(§4) For all experiments, after removing the test medium, fresh solution of MTT in PBS (40 μL of 0.5 mg MTT/mL) was added to the wells, and the cells were incubated at 37° C. for 3 h. The MTT solution was then removed, and the resulting insoluble violet formazan crystals were dissolved in 0.1 N HCl in isopropanol with 10% Triton X-100 (40 μL) to give a violet solution. The spectrophotometric absorbance measurement of each well in the 96-well plate was run at 570 nm using a Labsystems Multiskan Ascent microplate reader. The IC50 values and their standard errors were calculated from the viability-concentration curve using Four Parameter Logistic Model of Sigmaplot. The concentration of DMSO per well was ≤1% in all cases. Each experiment was run in triplicate.
For orientation: Tetrazolium dyes change colour on reduction, which living cells bring about.

Series [2] deals with L1210FR murine lymphocytic leukemia cell line (BR+). In words: In vitro cytotoxicity, standard MTT assay, L1210FR cells. The following applies: Mus musculus. The format is cell-based. Here is the method:
as §1, §2, §3
(§5) In the Assay 2 (Table 2), cells were incubated with 1 or 15 at 37° C. for 24 h, and the drug medium was removed. Then, treated cells were thoroughly washed with PBS, and GSH-OEt (6 equiv. to conjugate) in cell culture medium (200 μL) was added to the wells. These cells were incubated at 37° C. for an additional 48 h, i.e., the total incubation time was 72 h.
(§6) In the Assay 3 (Table 2), cells were incubated with 1 or 15 at 37° C. for 24 h, and GSH-OEt (6 equivalents) in cell culture medium (100 μL) was directly added to the wells. These cells were incubated at 37° C. for an additional 48 h, i.e. the total incubation time was also 72 h.
as §4

The subject of series [3] is MX-1 human breast carcinoma cell line (BR+). Put plainly: In vitro cytotoxicity, standard MTT assay, MX-1 cells. Format: cell-based. Particulars: Homo sapiens, Breast carcinoma cell. The protocol: as §1, §2, §3, §5, §6, §4
In series [4] the test system is BR+ cancer cell lines (L1210FR, MX-1, ID8). Put plainly: MTT cytotoxicity summarised over BR+ cancer cell lines. Format: cell-based. The following applies: for Cancer cell selectivity (BR-specificity), BR+ cancer cells vs BR− WI38 cells: Assay 2. Here is the method:
as §2, §3, §5, §6, §4
Thus, the Assay 1 results provide the potency of conjugates in the same manner as that for the first assay summarized in Table 1, but for longer incubation time (48 h vs. 72 h). […] Accordingly, this assay may mimic the corresponding in vivo assay conditions, wherein non-internalized conjugates would be removed from the tumor, redistributed and eventually excreted. […] Thus, in principle, the results (IC50 values) in this assay should be very close to those for the control using taxoid 3 (entry 2).

The test system of series [5] is ID8 murine ovarian carcinoma cell line (BR+). In words: In vitro cytotoxicity, standard MTT assay, ID8 cells. The following applies: Mus musculus, Ovarian carcinoma cell, read-out: Cytotoxicity IC50, ID8. Format: cell-based. The protocol:
as §1, §2
as §3, with “After removing the old medium, these test solutions were added to the wells in the 96-well plate to give the final concentrations ranging from 0.5 to 5,000 nM (100 μL), and the cells were subsequently cultured at 37° C. for 48 h (Table 1) or 72 h (Table 2, Assay 1).” left out
as §4

Series [6] can be described thus: In vitro cytotoxicity, standard MTT assay, WI38 cells. The following applies: human; for IC50 at 48 h: incubation at 37° C. for 48 h. The format is cell-based, human. The protocol:
as §1, §2, §3, §5, §6, §4

Series [7] has as its system WI38 human lung fibroblast cell line (BR−). The series is described as above. The format is cell-based. The protocol:
as §1, §2, §3, §5, §6, §4

The mark [8] stands for this setting: 48 h, read-out: Cytotoxicity IC50, L1210FR.
Setting [9] is: 72 h, read-out: Cytotoxicity IC50, L1210FR, Assay 1.
Where [10] appears, read: read-out: Cytotoxicity IC50, L1210FR, Assay 2.
Where [11] appears, read: read-out: Cytotoxicity IC50, L1210FR, Assay 3.
Where [12] appears, read: 48 h, read-out: Cytotoxicity IC50, MX-1.
[13] abbreviates: 72 h, read-out: Cytotoxicity IC50, MX-1, Assay 1.
Setting [14] is: read-out: Cytotoxicity IC50, MX-1, Assay 2.
[15] abbreviates: read-out: Cytotoxicity IC50, MX-1, Assay 3.
Setting [16] is: 24 h, PBS wash, GSH-OEt, additional 48 h, range over conjugates 1 and 15, read-out: IC50 range against BR+ cancer cells (MX-1, L1210FR), Assay 2.
[17] abbreviates: GSH-OEt added after 24 h without PBS washing, additional 48 h, range over conjugates 1 and 15, read-out: IC50 range against MX-1 and L1210FR, third assay (Assay 3).
Setting [18] is: 24 h incubation, PBS wash, then GSH-OEt (6 equiv.) and additional 48 h, read-out: Cytotoxicity IC50, WI38, Assay 2.
Where [19] appears, read: 24 h incubation, then GSH-OEt (6 equiv.) added without washing, additional 48 h, read-out: Cytotoxicity IC50, WI38, Assay 3.
Where [20] appears, read: 72 h incubation, no GSH-OEt, read-out: Cytotoxicity IC50, WI38, Assay 1.

Like-named read-outs stand apart in the source and are kept apart here.

On to `CC(=O)O[C@@]12CO[C@@H]1C[C@H](O)[C@@]1(C)C(=O)[C@H](OC(=O)C3CC3)C3=C(C)[C@@H](OC(=O)[C@H](OC(=O)Cc4ccccc4SSC(C)C(=O)NCCNc4nc(NCCOCCOCCOCCNC(=O)CCCC[C@@H]5SC[C@@H]6NC(=O)N[C@@H]65)nc(NCc5cn(CCOCCOCCOCCF)nn5)n4)[C@H](C=C(C)C)NC(=O)OC(C)(C)C)C[C@@](O)([C@@H](OC(=O)c4ccccc4)[C@H]21)C3(C)C` (stereo partly shown) [Conjugate 1], for which the IC50 in series [1] (L1210, 48 h) came to 593 nM; in series [2] (setting [8]), 14.7 ± 4 nM; in series [2] (setting [9]) it was 10.2 ± 3 nM; in series [2] (setting [10]) it was 6.6 ± 3.96 nM; in series [2] (setting [11]), 2.79 ± 1.43 nM; in series [3] (setting [12]), 21.2 ± 4.6 nM. Besides, the IC50 was 6.27 ± 2.06 nM in series [3] (setting [13]); 4.79 ± 0.12 nM in series [3] (setting [14]); 2.56 ± 0.15 nM in series [3] (setting [15]); 3.85 to 6.6 nM in series [4] (setting [16]); 6 to 21 nM in series [4] (48 h, read-out: Cytotoxicity IC50, range over L1210FR, MX-1 and ID8); 2.4 to 2.92 nM in series [4] (setting [17]). Besides, in series [5] (48 h), the IC50 came out at 6.62 ± 0.86 nM. The “Cancer cell selectivity (BR-specificity), BR+ cancer cells vs BR− WI38 cells” value in series [4] is “two-orders of magnitude difference”. Besides, the IC50 at 72 h in series [6] (setting [18]) stood at 615 ± 97 nM; in series [6] (setting [19]), 12.9 ± 4.3 nM; in series [6] (setting [20]), 682 ± 110 nM. Moreover, in series [6], half-maximal inhibition (IC50 at 48 h) was put at 709 nM.
With `CC(=O)O[C@@]12CO[C@@H]1C[C@H](O)[C@@]1(C)C(=O)[C@H](OC(=O)C3CC3)C3=C(C)[C@@H](OC(=O)[C@H](OC(=O)Cc4ccccc4SSC(C)CCC(=O)NNC(=O)CCCC[C@@H]4SC[C@@H]5NC(=O)N[C@@H]54)[C@H](C=C(C)C)NC(=O)OC(C)(C)C)C[C@@](O)([C@@H](OC(=O)c4ccccc4)[C@H]21)C3(C)C` (stereo partly shown) [Conjugate 15, Biotin-(SS-Linker)-SB-T-1214], the IC50 was 481 ± 34 nM in series [1] (L1210, 48 h); 13.4 ± 6.8 nM in series [2] (setting [8]); 12.3 ± 2.8 nM in series [2] (setting [9]); 5.15 ± 2.85 nM in series [2] (setting [10]); 2.92 ± 2.34 nM in series [2] (setting [11]); 15.4 ± 4.2 nM in series [3] (setting [12]). The half-maximal inhibitory concentration (IC50) in series [3] (setting [13]) was 4.66 ± 0.87 nM; in series [3] (setting [14]), 3.85 ± 0.14 nM; in series [3] (setting [15]), 2.4 ± 0.18 nM; in series [4] (setting [16]), 3.85 to 6.6 nM; in series [4] (setting [17]) it was 2.4 to 2.92 nM; in series [5] (48 h) it was 4.32 ± 1.58 nM. The “Cancer cell selectivity (BR-specificity), BR+ cancer cells vs BR− WI38 cells” value in series [4] was “two-orders of magnitude difference”. Besides, the values for the IC50 at 72 h in series [6] (setting [18]), in series [6] (setting [19]) and in series [6] (setting [20]) were 590 ± 164 nM, 11 ± 3.1 nM and 645 ± 97 nM, respectively. In series [6], this compound displayed an IC50 at 48 h of 670 ± 89 nM.
In the case of `CC(=O)O[C@@]12CO[C@@H]1C[C@H](O)[C@@]1(C)C(=O)[C@H](OC(=O)C3CC3)C3=C(C)[C@@H](OC(=O)[C@H](O)[C@H](C=C(C)C)NC(=O)OC(C)(C)C)C[C@@](O)([C@@H](OC(=O)c4ccccc4)[C@H]21)C3(C)C` [Taxoid 3, SB-T-1214, reference compound], the half-inhibitory concentration (IC50) in series [1] (L1210, 48 h) is 7.05 ± 1.38 nM; in series [2] (setting [8]), 4.18 ± 1.8 nM; in series [2] (setting [9]) it was 2.32 ± 1.41 nM; in series [3] (setting [12]), 4.13 ± 2.59 nM; in series [3] (setting [13]) it was 2.66 ± 0.16 nM; in series [4] (72 h incubation, read-out: IC50 range of free taxoid against MX-1 and L1210FR), 2.32 to 2.66 nM. Further, the IC50 in series [5] (48 h) worked out at 0.17 ± 0.14 nM. Besides, in series [6] (setting [20]), the IC50 at 72 h came out at 4.89 ± 2.24 nM. In addition, in series [6], the IC50 at 48 h came to 5.23 ± 0.27 nM.
Take `CC(=O)O[C@H]1C(=O)[C@@]2(C)[C@H]([C@H](OC(=O)c3ccccc3)[C@]3(O)C[C@H](OC(=O)[C@H](O)[C@@H](NC(=O)c4ccccc4)c4ccccc4)C(C)=C1C3(C)C)[C@]1(OC(C)=O)CO[C@@H]1C[C@@H]2O` [paclitaxel, reference compound]: the IC50 was found to be 77.1 ± 12.8 nM in series [1] (L1210, incubation at 37° C. for 48 h); 35.6 ± 8.2 nM in series [2] (72 h incubation, no GSH-OEt, read-out: Cytotoxicity IC50, L1210FR, Assay 1); 38.7 ± 17.7 nM in series [2] (incubation at 37° C. for 48 h, read-out: Cytotoxicity IC50, L1210FR); 4.07 ± 0.8 nM in series [3] (72 h incubation, no GSH-OEt, read-out: Cytotoxicity IC50, MX-1, Assay 1); 7.23 ± 0.68 nM in series [3] (incubation at 37° C. for 48 h, read-out: Cytotoxicity IC50, MX-1); 14.4 ± 1.81 nM in series [5] (incubation at 37° C. for 48 h). Moreover, the IC50 in series [7] (setting [20]) worked out at 55.7 ± 9.54 nM; in series [7] (incubation at 37° C. for 48 h, read-out: Cytotoxicity IC50, WI38), 61.4 ± 12.7 nM.

In general, IC50 refers to the midpoint of a concentration-inhibition curve.
